Experiment [1] deals with lytic activity of D222D clone 2 against peptide-pulsed LCL target cells. The experiment can be described thus: Cytotoxic mechanism: ZnT8-specific lysis of LCL targets by D222D clone 2 in the presence of inhibitors. The format is cell-based, human. As to conditions: 4 h co-culture; concanamycin A 100 nM, brefeldin A 5 μg/ml, anti-FasL mAb 5 μg/ml. As for the experimental part:
FIG. 6. […]; left to right). Live FarRed^+ target cells were counted at the end of the culture and normalized to a fixed amount of beads added to each well. Percent lysis is noted for each dot plot, calculated as 100×(live targets cultured alone)−(live targets in the presence of T cells)/(live targets cultured alone). B. Lysis of LCL targets pulsed with the indicated peptides and cultured with D222D clones at different E/T ratios. Percent lysis was calculated as above and depicted as mean±SEM of two independent experiments with clone 2 and 3, with data depicted in panel (A) used for clone 3. Similar profiles were obtained for clone 1 (not shown). C. ZnT8-specific lysis of peptide-pulsed LCL target cells co-cultured for 4 h with D222D clone 2 without inhibitors (−) or in the presence of concanamycin A (CMA, 100 nM), brefeldin A (BFA, 5 μg/ml), anti-FasL mAb (aFasL, clone NOK-1; 5 μg/ml) or IgG1 isotype control. *p<0.05 by Wilcoxon signed-rank test. Results are mean±SEM of triplicate measurements from one representative experiment out two performed.
LCL pulsed with 10 μM of the indicated peptide, K562-A2/ZnT8 or K562/A2 target cells were labeled with CellTrace FarRed (Life Technologies) and dispensed in 96-well flat-bottom plates at 10^5/well. Different numbers of CFSE-labeled T cells were added and co-cultured for 6-24 h, as indicated. […]

In experiment [2] the target is recombinant HLA-A2 molecules (Homo sapiens, UniProt P04439, D140Y/D185E/D98H/E176V/E277Q/G131W/G231S/I119V/I121R/I166T/I218V/N151K/N90K/P208A/P217A/Q86G/Q94H/R138H/R169H). The experiment can be described thus: Affinity and stability measurements of recombinant HLA-A2 molecules complexed with peptide. The format is binding. As to conditions: recombinant HLA-A2 complexed with peptide; data not shown.

Experiment [3] concerns the target recombinant HLA-A2 molecules (Homo sapiens, UniProt P04439, /I119V/I121R/I166T/I218V/N151K/N90K/P208A/P217A/Q86G/Q94H/R138H/R169H). Described as above. The format is binding.

What is called pKd is the negative decadic logarithm of the Kd, by convention in mol/L.

pKd: −log10 of the molar value. No end group written: not given here.

As for `C[C@H]1CCC/C=C/[C@@H]2C[C@H](O)C[C@H]2[C@H](O)/C=C/C(=O)O1` [brefeldin A], in experiment [1], the “inhibition of lytic activity” value was “not”.

In the case of `C/C=C/[C@H]1O[C@@](O)([C@@H](C)[C@H](O)[C@H](C)[C@H]2OC(=O)/C(OC)=C/C(C)=C/[C@@H](C)[C@@H](O)[C@@H](CC)[C@@H](O)[C@H](C)C/C(C)=C/C=C/[C@@H]2OC)C[C@@H](O[C@H]2C[C@@H](O)[C@H](OC(N)=O)[C@@H](C)O2)[C@@H]1C` [concanamycin A], the “inhibition of lytic activity” value in experiment [1] was “completely inhibited”. For the compound AVAANIVLTV [ZnT8185-194], the negative logarithm of the Kd (pKd) in experiment [2] was 6.68. For the compound VAANIVLTV [ZnT8186-194], in experiment [3], the negative logarithm of the Kd (pKd) was 7.82.
